The results in this text go back to patent US20240173432A1, “Compositions and Methods for Treatment of Myotonic Dystrophy Type 1 with CRISPR/SluCas9” (Vertex Pharmaceuticals Incorporated, priority 2021, published 2024).

The subject of series [1] is CAG foci in primary DM1 patient myoblasts. The series is described as follows: Single-cut screening: CAG foci staining. Conditions: single sgRNA; for % of CAG foci positive nuclei (DNA-PKi): DNA-PKi treated. It is filed as cell-based, human. The method in brief: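 Primary DM1 patient myoblasts were PFA-fixed and hybridized with […] (1 ng/μL, 15 min at 80° C) in 30% formamide/2×SSC, followed by anti-MBNL1 immunostaining and Hoechst counterstain. CAG RNA foci were quantified by high-content confocal imaging after single-cut SuCas9 sgRNA editing.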

Series [2] has as its system CUG foci in primary DM1 patient myoblasts. The series is described as follows: Single-cut screening: FISH staining of CUG RNA foci. Conditions: single sgRNA, primary DM1 patient myoblasts; for % of CUG foci free nuclei (DNA-PKi): DNA-PKi treated. It is filed as cell-based, human. The method in brief:
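CD56-purified primary DM1 patient myoblasts nucleofected with SluCas9:sgRNA RNP (30:90 pmol, single-cut), then DMSO or 3 μM DNA-PK inhibitor for 48 h. At 72 h post-nucleofection, cells fixed and stained for CUG foci with Cy3-PNA(CAG)5 probe (1 ng/μL, 80 °C), co-stained for MBNL1 and Hoechst, imaged by high-content confocal microscopy.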

Series [3] has as its system 3′ UTR of the human DMPK gene. Briefly: Single-cut screening: indel editing efficiency by Sanger sequencing and ICE analysis in primary DM1 patient myoblasts. The class given is cell-based. Conditions: vehicle-treated samples; for Indel efficiency: single SluCas9 sgRNA RNP in primary DM1 patient myoblasts, Sanger sequencing and ICE analysis; for indel efficiency (Sanger sequencing and ICE analysis): single-cut, SluCas9 RNP, 72 hrs post nucleofection, wild-type allele. In outline: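 Indels were estimated by ICE from Sanger chromatograms of PCR amplicons covering the DMPK 3′ UTR wild-type allele, using only vehicle-treated samples; sgRNAs with R2<0.9 are flagged. Samples came from primary DM1 patient myoblasts (2 × 10^5) harvested 72 h after nucleofection with 30 pmol SluCas9 and 90 pmol single sgRNA RNP.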

As for “CACCCCCGACCCTCGCGAATAA (guide RNA; chemistry not fully specified) [SluD90]”, in series [1], the “% of CAG foci positive nuclei (DNA-PKi)” value turned out to be 1.27% and the “% of CAG foci positive nuclei (Vehicle)” value was 0.86%. In series [2], the “% of CUG foci free nuclei (DNA-PKi)” value is 23.81% and the “% of CUG foci free nuclei (Vehicle)” value is 7.35%. Besides, the Indel efficiency in series [3] is given as 2%.
On to “GAGAGCAGCGCAAGTGAGGAGG (listed as DNA, chemistry not fully specified) [SluD48]”, for which, in series [1], the “% of CAG foci positive nuclei (DNA-PKi)” value is reported as 2.91% and the “% of CAG foci positive nuclei (Vehicle)” value stood at 2.3%. In addition, in series [2], the “% of CUG foci free nuclei (DNA-PKi)” value is given as 25.41% and the “% of CUG foci free nuclei (Vehicle)” value is 13.31%. For the same substance, in series [3], the Indel efficiency came to 60%; the “indel efficiency (Sanger sequencing and ICE analysis)” value is reported as “high editing IN4DEL efficiency”.
Turning to “gccgggtccgcggccggcgaac (GCCGGGTCCGCGGCCGGCGAAC; guide RNA; chemistry not fully specified) [SluU57]”, in series [1], the “% of CAG foci positive nuclei (DNA-PKi)” value stood at 1.77% and the “% of CAG foci positive nuclei (Vehicle)” value was 1.54%. In series [2], the “% of CUG foci free nuclei (DNA-PKi)” value stood at 52.65% and the “% of CUG foci free nuclei (Vehicle)” value is recorded as 18.03%. Moreover, the Indel efficiency in series [3] is reported as 17%.
The matching figures for “ACAATAAATACCGAGGAATGTC (guide RNA; chemistry not fully specified) [SluD80]”: 1.49%, 1.98%, 17.34%, 11.92% and 1%.
With “GGCCCGGATCACAGGACTGGAG (guide RNA; chemistry not fully specified) [SluU31]”, in series [1], the “% of CAG foci positive nuclei (DNA-PKi)” value is on record as 1.62% and the “% of CAG foci positive nuclei (Vehicle)” value worked out at 0.94%. For the same substance, in series [2], the “% of CUG foci free nuclei (DNA-PKi)” value is recorded as 40.74% and the “% of CUG foci free nuclei (Vehicle)” value is listed as 14.2%. Also, in series [3], the Indel efficiency amounted to 29%.
The matching figures for “TCGGCCAGGCTGAGGCCCTGAC (guide RNA; chemistry not fully specified) [SluD05]”: 1.1%, 1.42%, 26.99%, 26.95% and 22%.
The matching figures for “GCGGTTGTGAACTGGCAGGCGG (guide RNA; chemistry not fully specified) [SluU18]”: 1.24%, 1.1%, 48.57%, 9.74% and 14%.
For the substance “CAAACCGCCGAAGCGGGCGGAG (guide RNA; chemistry not fully specified) [SluD61]”, in series [1], the “% of CAG foci positive nuclei (DNA-PKi)” value came to 1.94% and the “% of CAG foci positive nuclei (Vehicle)” value is 1.27%. In series [2], the “% of CUG foci free nuclei (DNA-PKi)” value came to 26.76% and the “% of CUG foci free nuclei (Vehicle)” value is 17.04%. Further, the Indel efficiency in series [3] stood at 2%.
The matching figures for “GGCCCGCCCCCTAGCggccggg (guide RNA; as printed in the source, key not given here) [SluU38]”: 1.56%, 0.68%, 32.86%, 7.24% and 2%.
Turning to “ggccgggtccgcggccggcgaa (GGCCGGGTCCGCGGCCGGCGAA; guide RNA; chemistry not fully specified) [SluU56]”, in series [1], the “% of CAG foci positive nuclei (DNA-PKi)” value turned out to be 1.83% and the “% of CAG foci positive nuclei (Vehicle)” value was 0.94%. In series [2], the “% of CUG foci free nuclei (DNA-PKi)” value came out at 42.84% and the “% of CUG foci free nuclei (Vehicle)” value was found to be 16.76%. In addition, the Indel efficiency in series [3] is on record as 27%.
The matching figures for “CTTTGCGAACCAACGATAGGTG (guide RNA; chemistry not fully specified) [SluD25]”: 1.35%, 2.62%, 32.03%, 26.87% and 41%.
The matching figures for “AGCGCAAGTGAGGAGGGGGGCG (guide RNA; chemistry not fully specified) [SluD45]”: 1.16%, 1.17%, 32.39%, 7.51% and 8%.
The matching figures for “AAAACGTGGATTGGGGTTGTTG (guide RNA; chemistry not fully specified) [SluD71]”: 2.27%, 1.38%, 23.51%, 9.75% and 23%.
For “CCAAAACGTGGATTGGGGTTGT (listed as DNA, chemistry not fully specified) [SluD73]”, in series [1], the “% of CAG foci positive nuclei (DNA-PKi)” value is recorded as 2.33% and the “% of CAG foci positive nuclei (Vehicle)” value stood at 2.52%. In addition, in series [2], the “% of CUG foci free nuclei (DNA-PKi)” value is 32.52% and the “% of CUG foci free nuclei (Vehicle)” value turned out to be 12.95%. For the same substance, in series [3], the Indel efficiency came out at 65%; the “indel efficiency (Sanger sequencing and ICE analysis)” value is recorded as “high editing IN4DEL efficiency”.
Turning to “GGTCCTGTAGCCTGTCAGCGAG (guide RNA; chemistry not fully specified) [SluD69]”, in series [1], the “% of CAG foci positive nuclei (DNA-PKi)” value was found to be 2.13% and the “% of CAG foci positive nuclei (Vehicle)” value is on record as 1.3%. Moreover, in series [2], the “% of CUG foci free nuclei (DNA-PKi)” value is on record as 27.98% and the “% of CUG foci free nuclei (Vehicle)” value is 10.88%. Also, the Indel efficiency in series [3] is listed as 14%.
Regarding “AACCAACGATAGGTGGGGGTGC (guide RNA; chemistry not fully specified) [SluD24]”, in series [1], the “% of CAG foci positive nuclei (DNA-PKi)” value is 1.68% and the “% of CAG foci positive nuclei (Vehicle)” value was 2.75%. For the same substance, in series [2], the “% of CUG foci free nuclei (DNA-PKi)” value is on record as 22.99% and the “% of CUG foci free nuclei (Vehicle)” value stood at 17.65%. This substance showed an Indel efficiency in series [3] of 27%.
The matching figures for “CACTTTGCGAACCAACGATAGG (guide RNA; chemistry not fully specified) [SluD27]”: 1.4%, 0.93%, 20.28%, 7.6% and 8%.
The matching figures for “CGAGGGTCGGGGGTGGGGGTCC (guide RNA; chemistry not fully specified) [SluD88]”: 2.42%, 1.4%, 31.95%, 11.11% and 7%.
The matching figures for “AAAAGCAAATTTCCCGAGTAAG (guide RNA; chemistry not fully specified) [SluD38]”: 1.96%, 0.93%, 15.53%, 6.59% and 1%.
“GCTTTTGCCAAACCCGCTTTTT (guide RNA; chemistry not fully specified) [SluD40]”: in series [1], the “% of CAG foci positive nuclei (DNA-PKi)” value worked out at 1.46% and the “% of CAG foci positive nuclei (Vehicle)” value is 1.68%. In series [2], the “% of CUG foci free nuclei (DNA-PKi)” value came to 23.44% and the “% of CUG foci free nuclei (Vehicle)” value is reported as 8.9%. In addition, the Indel efficiency in series [3] is recorded as 5%.
The matching figures for “GGGGGTGCGTGGAGGATGGAAC (guide RNA; chemistry not fully specified) [SluD20]”: 1.1%, 1.81%, 24.59%, 13.32% and 24%.
With “GATAGGTGGGGGTGCGTGGAGG (guide RNA; chemistry not fully specified) [SluD21]”, in series [1], the “% of CAG foci positive nuclei (DNA-PKi)” value is on record as 1.77% and the “% of CAG foci positive nuclei (Vehicle)” value amounted to 1.95%. Also, in series [2], the “% of CUG foci free nuclei (DNA-PKi)” value was found to be 32.15% and the “% of CUG foci free nuclei (Vehicle)” value turned out to be 9.96%. This substance also displayed an Indel efficiency in series [3] of 36%.
As to “AGGACCCTTCGAgccccgttcg (as printed in the source, key not given here) [SluU62]”, in series [1], the “% of CAG foci positive nuclei (DNA-PKi)” value was found to be 1.67% and the “% of CAG foci positive nuclei (Vehicle)” value stood at 1%. Moreover, in series [2], the “% of CUG foci free nuclei (DNA-PKi)” value turned out to be 59.07% and the “% of CUG foci free nuclei (Vehicle)” value was found to be 17.18%. For the same substance, in series [3], the Indel efficiency was 87%; the “indel efficiency (Sanger sequencing and ICE analysis)” value is recorded as “high editing IN4DEL efficiency”.
